Source: article PMC6967030, “Apparent Lack of BRAF^V600E Derived HLA Class I Presented Neoantigens Hampers Neoplastic Cell Targeting by CD8^+ T Cells in Langerhans Cell Histiocytosis” (Frontiers in Immunology, 2020)
Ends that are not written are not given here.

Experiments:
Experiment in all cases: Competition-based peptide-HLA class I binding assay
HLA-A*02:01 = HLA-A*02:01 (Homo sapiens, UniProt P04439, D140Y/D185E/D98H/E176V/E277Q/G131W/G231S/I119V/I121R/I166T/I218V/L300P/L318F/N151K/N90K/P208A/P217A/Q86G/Q94H/R138H/R169H/T345S); details: concentration that inhibits 50% binding of fluorescently-labeled standard peptide […], read-out: In vitro HLA binding affinity (IC50, nM), peptide-HLA binding assay, A*02:01
Protocol: Competition-based peptide-HLA class I binding assays were performed as previously described ([60]).

HLA-A*03:01 = HLA-A*03:01 (Homo sapiens, UniProt P04439); details: concentration that inhibits 50% binding of fluorescently-labeled standard peptide […], read-out: In vitro HLA binding affinity (IC50, nM), peptide-HLA binding assay, A*03:01
Protocol: (§1) Competition-based peptide-HLA class I binding assays were performed as previously described ([60]). […] The standard peptides were […] for HLA-A^*02:01 and […] for HLA-A^*03:01 and HLA-A^*11:01.

HLA-A*11:01 = HLA-A*11:01 (Homo sapiens, UniProt P04439, A114D/D185E/E176A/F33Y/L180Q/S129P/T187R); details: concentration that inhibits 50% binding of fluorescently-labeled standard peptide […], read-out: In vitro HLA binding affinity (IC50, nM), peptide-HLA binding assay, A*11:01
Protocol: as §1

Sequence | IC50 (HLA-A*02:01) | IC50 (HLA-A*03:01) | IC50 (HLA-A*11:01)
KIGDFGLATE [KIGDFGLATE] | 86900 nM |  | 
KIGDFGLATV | 40 nM |  | 
KIGDFGLATEK |  | 672 nM | 45 nM
KIGDFGLATVK |  | 415 nM | 32 nM
